Laboratory results as given in PubChem BioAssay AID1963967 (Molecular Pharmacology Branch, DTP, NCI, 2024).

System: 855422-203-R-J1-PDC spheroids with HUVEC/MSC, viability
Experiment: Anticancer human tumor 855422-203-R-J1-PDC patient-derived bladder carcinoma cell line growth inhibition [PI3K]
Conditions: for viability, T/C: stronger effect = lower value
Procedure, shortened: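 Spheroid viability read-out. Co-cultures contained the tumor line plus HUVEC and human MSCs. Each agent was paired with a PI3K inhibitor (inavolisib, alpelisib, duvelisib, copanlisib) across half-log dilutions starting at clinical Cmax, or at 10 microM when Cmax was unknown.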

[1] = curve of first compound, second compound 0.00316 µM
[2] = curve of first compound, second compound 0.01 µM
[3] = curve of first compound, second compound 0.0316 µM
[4] = curve of first compound, second compound 0.1 µM
[5] = curve of first compound, second compound 0.316 µM
[6] = curve of first compound, second compound 1 µM
[7] = second compound 0.00316 µM, first compound 0.0316 µM
[8] = second compound 0.00316 µM, first compound 0.1 µM
[9] = second compound 0.00316 µM, first compound 0.316 µM
[10] = second compound 0.00316 µM, first compound 1 µM
[11] = second compound 0.00316 µM, first compound 3.16 µM
[12] = second compound 0.00316 µM, first compound 10 µM
[13] = second compound 0.01 µM, first compound 0.0316 µM
[14] = second compound 0.01 µM, first compound 0.1 µM
[15] = second compound 0.01 µM, first compound 0.316 µM
[16] = second compound 0.01 µM, first compound 1 µM
[17] = second compound 0.01 µM, first compound 3.16 µM
[18] = second compound 0.01 µM, first compound 10 µM
[19] = second compound 0.0316 µM, first compound 0.0316 µM
[20] = second compound 0.0316 µM, first compound 0.1 µM
[21] = second compound 0.0316 µM, first compound 0.316 µM
[22] = second compound 0.0316 µM, first compound 1 µM
[23] = second compound 0.0316 µM, first compound 3.16 µM
[24] = second compound 0.0316 µM, first compound 10 µM
[25] = second compound 0.1 µM, first compound 0.0316 µM
[26] = second compound 0.1 µM, first compound 0.1 µM
[27] = second compound 0.1 µM, first compound 0.316 µM
[28] = second compound 0.1 µM, first compound 1 µM
[29] = second compound 0.1 µM, first compound 3.16 µM
[30] = second compound 0.1 µM, first compound 10 µM
[31] = second compound 0.316 µM, first compound 0.0316 µM
[32] = second compound 0.316 µM, first compound 0.1 µM
[33] = second compound 0.316 µM, first compound 0.316 µM
[34] = second compound 0.316 µM, first compound 1 µM
[35] = second compound 0.316 µM, first compound 3.16 µM
[36] = second compound 0.316 µM, first compound 10 µM
[37] = second compound 1 µM, first compound 0.0316 µM
[38] = second compound 1 µM, first compound 0.1 µM
[39] = second compound 1 µM, first compound 0.316 µM
[40] = second compound 1 µM, first compound 1 µM
[41] = second compound 1 µM, first compound 3.16 µM
[42] = second compound 1 µM, first compound 10 µM
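Note: agents incubated with spheroids for one week before read-out.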
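Throughout, for viability, T/C: 100% = DMSO vehicle-treated control wells.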

For `CC(Cn1ccc(-c2ccc(C#N)c(Cl)c2)n1)NC(=O)c1cc(C(C)O)[nH]n1` (stereo not drawn) + COc1c(OCCCN2CCOCC2)ccc2c3n(c(=NC(=O)c4cnc(N)nc4)nc12)CCN3, the IC50 [1] was over 10 µM, the IC50 [2] was over 10 µM and the IC50 [3] was over 10 µM. The IC50 [4] was under 0.0316 µM, the IC50 [5] was under 0.0316 µM and the IC50 [6] was under 0.0316 µM. It also gave a viability, T/C [7] of 110%, a viability, T/C [8] of 90.4% and a viability, T/C [9] of 99.9%. It also gave a viability, T/C [10] of 80.3%, a viability, T/C [11] of 108% and a viability, T/C [12] of 86.8%. The viability, T/C [13] was 91.4%, the viability, T/C [14] was 83.7% and the viability, T/C [15] was 87.4%. For the same compound, the viability, T/C [16] was 103%, the viability, T/C [17] was 86.6% and the viability, T/C [18] was 72.8%. For the same compound, the viability, T/C [19] was 60.4%, the viability, T/C [20] was 64.4% and the viability, T/C [21] was 59.8%. It also gave a viability, T/C [22] of 68.7%, a viability, T/C [23] of 75.3% and a viability, T/C [24] of 58.6%. The viability, T/C [25] was 26.6%, the viability, T/C [26] was 25.5% and the viability, T/C [27] was 27.3%. The viability, T/C [28] was 30.1%, the viability, T/C [29] was 27.9% and the viability, T/C [30] was 25.3%. It also gave a viability, T/C [31] of 7.87%, a viability, T/C [32] of 8.84% and a viability, T/C [33] of 7.77%. The viability, T/C [34] was 9.07%, the viability, T/C [35] was 10.8% and the viability, T/C [36] was 7.91%. It also gave a viability, T/C [37] of 5.17%, a viability, T/C [38] of 4.25% and a viability, T/C [39] of 3.21%. It also gave a viability, T/C [40] of 3.76%, a viability, T/C [41] of 4.49% and a viability, T/C [42] of 3.05%.
`CC(Nc1ccc2c(c1)OCCn1cc(N3C(=O)OCC3C(F)F)nc1-2)C(N)=O` (stereo not drawn) was tested, and the viability, T/C (compound 0.00316 µM) was 107% [middle of 8 runs], the viability, T/C (compound 0.01 µM) was 104% [middle of 8 runs] and the viability, T/C (compound 0.0316 µM) was 98.5% [middle of 8 runs]. For the same compound, the viability, T/C (compound 0.1 µM) was 76.7% [middle of 8 runs], the viability, T/C (compound 0.316 µM) was 50.6% [middle of 8 runs] and the viability, T/C (compound 1 µM) was 35.6% [middle of 8 runs]. For the same compound, the IC50 (compound alone, run of 05/08/2023) was 300 nM [middle of 8 runs].
Compound `CC1(C)CCC(CN2CCN(c3ccc(C(=O)NS(=O)(=O)c4ccc(NCC5CCOCC5)c([N+](=O)[O-])c4)c(Oc4cnc5[nH]ccc5c4)c3)CC2)=C(c2ccc(Cl)cc2)C1` + CC(Nc1ncnc2nc[nH]c12)c1cc2cccc(Cl)c2c(=O)n1-c1ccccc1 has an IC50 [3] of 4.97 µM, an IC50 [4] of 4.87 µM and an IC50 [5] of 5.11 µM. It also gave an IC50 [6] of 5.04 µM, an IC50 (curve of first compound, second compound 3.16 µM) of 5.09 µM and an IC50 (curve of first compound, second compound 10 µM) of 5.17 µM. The viability, T/C [19] was 118%, the viability, T/C [20] was 88.3% and the viability, T/C [21] was 114%. For the same compound, the viability, T/C [22] was 105%, the viability, T/C [23] was 81.1% and the viability, T/C [24] was 2.05%. The viability, T/C [25] was 92%, the viability, T/C [26] was 101% and the viability, T/C [27] was 111%. The viability, T/C [28] was 117%, the viability, T/C [29] was 78.8% and the viability, T/C [30] was 1.83%. For the same compound, the viability, T/C [31] was 104%, the viability, T/C [32] was 107% and the viability, T/C [33] was 105%. It also gave a viability, T/C [34] of 106%, a viability, T/C [35] of 84.2% and a viability, T/C [36] of 2.05%. The viability, T/C [37] was 95.6%, the viability, T/C [38] was 106% and the viability, T/C [39] was 103%. It also gave a viability, T/C [40] of 98.4%, a viability, T/C [41] of 82.5% and a viability, T/C [42] of 2.34%. For the same compound, the viability, T/C (second compound 3.16 µM, first compound 0.0316 µM) was 99.9%, the viability, T/C (second compound 3.16 µM, first compound 0.1 µM) was 96.9% and the viability, T/C (second compound 3.16 µM, first compound 0.316 µM) was 104%. The viability, T/C (second compound 3.16 µM, first compound 1 µM) was 97.9%, the viability, T/C (second compound 3.16 µM, first compound 3.16 µM) was 83.9% and the viability, T/C (second compound 3.16 µM, first compound 10 µM) was 2.02%. The viability, T/C (second compound 10 µM, first compound 0.0316 µM) was 97.2%, the viability, T/C (second compound 10 µM, first compound 0.1 µM) was 79.9% and the viability, T/C (second compound 10 µM, first compound 0.316 µM) was 103%. It also gave a viability, T/C (second compound 10 µM, first compound 1 µM) of 89.1%, a viability, T/C (second compound 10 µM, first compound 3.16 µM) of 85.6% and a viability, T/C (second compound 10 µM, first compound 10 µM) of 2.02%.
`C#Cc1c(F)ccc2cc(O)cc(-c3ncc4c(N5CC6CCC(C5)N6)nc(OCC56CCCN5CC(F)C6)nc4c3F)c12` (stereo not drawn) + CC(Nc1ccc2c(c1)OCCn1cc(N3C(=O)OCC3C(F)F)nc1-2)C(N)=O showed an IC50 [1] of over 10 µM, an IC50 [2] of over 10 µM and an IC50 [3] of over 10 µM. It also gave an IC50 [4] of over 10 µM, an IC50 [5] of 3.61 µM and an IC50 [6] of under 0.0316 µM. It also gave a viability, T/C [7] of 94.4%, a viability, T/C [8] of 85.1% and a viability, T/C [9] of 109%. The viability, T/C [10] was 89.2%, the viability, T/C [11] was 107% and the viability, T/C [12] was 110%. The viability, T/C [13] was 106%, the viability, T/C [14] was 93% and the viability, T/C [15] was 96.6%. For the same compound, the viability, T/C [16] was 98.2%, the viability, T/C [17] was 110% and the viability, T/C [18] was 116%. It also gave a viability, T/C [19] of 82.4%, a viability, T/C [20] of 87.8% and a viability, T/C [21] of 89.9%. It also gave a viability, T/C [22] of 92.4%, a viability, T/C [23] of 105% and a viability, T/C [24] of 92.9%. It also gave a viability, T/C [25] of 71.7%, a viability, T/C [26] of 69.8% and a viability, T/C [27] of 58.7%. For the same compound, the viability, T/C [28] was 82.8%, the viability, T/C [29] was 77.8% and the viability, T/C [30] was 73.6%. It also gave a viability, T/C [31] of 55.5%, a viability, T/C [32] of 55.3% and a viability, T/C [33] of 44.7%. It also gave a viability, T/C [34] of 54.6%, a viability, T/C [35] of 53.9% and a viability, T/C [36] of 29.1%. The viability, T/C [37] was 38.7%, the viability, T/C [38] was 31.5% and the viability, T/C [39] was 35.1%. It also gave a viability, T/C [40] of 32.8%, a viability, T/C [41] of 29.4% and a viability, T/C [42] of 17.6%.
